{"source": "patent US20020169123A1", "about": "“Regulating apoptosis in TRAIL-resistant cancer cells, while protecting normal, non-cancerous cells” (THE TRUSTEES OF THE UNIVERSITY OF PENNSYLVANIA, priority 2001, published 2002)", "key": {"[1]": {"tested_on": "TRAIL-resistant HCE4 cell line", "test": "time course western blot of caspase activation and PARP cleavage", "assay_type": "cell-based, human", "conditions": "only in CHX-pretreated HCE4 cells; 6 hours CHX pre-incubation", "procedure": "(§1) Western blot analysis was carried out as previously described (Meng et al., Clin. Cancer Res. 4:251-259 (1998)). Blotted membranes were immunostained with anti-DR4 (1:500; Pharmingen), anti-DR5 (1:500; IMGENEX, San Diego, Calif.), anti-DcR1 (1:500; Pharmingen), anti-DcR2 (1:500; Pharmingen), anti-FADD (Clone IF7, 1:2000; Upstate Biotechnology, Lake Placid, N.Y.), anti-caspase 8 (Clone 5F7, 1:1000; Upstate Biotechnology), anti-FLIP (Clone Dave-2, 1:1000; Alexis Biochemicals, San Diego, Calif.), anti-Bid (1:500; Pharmingen), anti-Bax (1:500, Pharmingen), anti Bcl-2 (Bcl-2/100, 1:500; Pharmingen), anti-Bcl-xL (1:500; Pharmingen), anti-caspase 3 (E-8, 1:200; Santa Cruz, Santa Cruz, Calif.), anti-PARP (1:2000; Roche Diagnostics GmbH, Mannheim, Germany), anti-TRAIL (1:500; PeproTech Inc., Rocky Hill, N.J.), or anti-actin (I-19, 1:200; Santa Cruz).\nA time course experiment was performed using the TRAIL-resistant HCE4 cell line. After 6 hours of pre-incubation in the presence or absence of CHX, the cells were exposed to TRAIL, then lysates were prepared and harvested at time points every 30 minutes after the addition of TRAIL, up to 4 hrs by adding 1× SDS loading buffer. The timed lysates were subjected to 10 or 12% SDS-PAGE, and then immunoblotted and stained with the indicated antibodies (FIG. 3). […]"}, "[2]": {"tested_on": "TE9 cells", "test": "DISC IP analysis, recruitment of caspase 8 into DISC", "assay_type": "cell-based, human", "conditions": "CHX-pre-treated vs control", "procedure": "(§2) To perform the DISC analysis, cells were grown, harvested and re-suspended in 2 mL of DMEM (1.5×10^7 cells/mL). TRAIL (500 ng/mL final concentration) and anti-6× His antibody (2.5 μg/mL final concentration) were pre-mixed for 10 minutes on ice, then added to the re-suspended cells. The cells were treated with TRAIL for 20 minutes in a 37° C. water bath with intermittent agitation. TRAIL treatment was stopped by adding 5 mL of ice-cold PBS, followed by immediate centrifugation. […]\n(§3) To the cleared lysate, 30 μL of protein A/G plus agarose beads (Santa Cruz) were added and incubated overnight in a cold room with continuous rocking. […] After centrifugation at the same condition, the precipitates were re-suspended in 1× SDS loading buffer and analyzed by 12% SDS-PAGE and western immunostaining.\n(§4) In the control used to verify the DISC without TRAIL stimulation, the same amounts of TRAIL and antibody were added to the lysate after the cells were lysed with IP lysis buffer. Equal amounts of total cell lysates were also analyzed as an expression control. […]\n(§5) FIGS. 3A and 3B depict an immunostained western blot showing the sensitization of TRAIL-resistant HCE4 cells to TRAIL resulting from CHX pre-treatment. […] Actin levels were measured as a control standard."}, "[3]": {"tested_on": "HCE4 cells", "test": "DISC IP analysis, recruitment of caspase 8 into DISC", "assay_type": "cell-based, human", "conditions": "CHX-pre-treated vs control", "procedure": "as §2, §3, §4, §5"}, "[4]": {"tested_on": "esophageal cancer cell lines", "test": "active-caspase 3 assay, TRAIL cytotoxicity on esophageal cancer cell lines", "assay_type": "cell-based, human", "procedure": "To assess TRAIL cytotoxicity on esophageal cancer cells, the active-caspase 3 assay was used. […] After 16 hours of the TRAIL treatment, the cells were harvested and the active-caspase 3 assay was performed as described in the Experimental Procedures above. In the case of CHX treatment, the cells were pre-treated with CHX (10 μg/mL final concentration) for 6 hours before the addition of TRAIL.\nThe protein synthesis inhibitor, cycloheximide (“CHX”), has been widely used with apoptosis-inducing ligands, such as FAS/FASL, TNF-α, or TRAIL, to induce cell death effectively. […] This is because previous observers have reported that over-expression of c-FLIP can interrupt the recruitment of caspase 8 into DISC, thereby preventing down stream activation of the caspase cascade (Wajant et al., J. Biol. Chem. 275:24357-24366 (2000)). It has also been reported that CHX might sensitize the cells to TRAIL by inhibiting a de novo synthesis of c-FLIP, thereby increasing the recruitment of caspase 8 into DISC (Fulda et al., Cancer Res. 60:3947-3956 (2000)), followed by activation of downstream apoptotic signaling cascade."}, "[5]": {"tested_on": "all cells, including cancer cells", "test": "protection from the killing effect of TRAIL by caspase inhibitors", "assay_type": "cell-based", "conditions": "stated without experimental detail"}, "[6]": {"tested_on": "TRAIL-sensitive SW480 colon cancer cells", "test": "apoptosis-inducing activity of adenovirus-expressed TRAIL", "assay_type": "cell-based, human", "conditions": "z-VAD-FMK 20 μM added 1 hour after onset of virus infection", "from_the_text": "To make an adenovirus expressing extra-cellular portion of TRAIL (amino acids (Aa) 95 to 281), pAdTRACK/CMV and pAdEasy systems were used as previously described (He et al., Proc. Natl. Acad. Sci. USA 95:2509-2514 (1998)). In short, the extra-cellular portion of TRAIL was amplified by PCR (polymerase chain reaction). The amplified fragment was fused directly to the signal peptide of a mouse Ig κ chain, which is secreted into the media from the cells. Then, an isoleucine zipper (ILZ) fragment was inserted between the signal peptide and TRAIL to induce self-trimerization (Harbury et al., Science 262:1401-1407 (1993)). The final resulting construct was cloned into pAdTRACK/CMV, and then a recombinant plasmid was generated in BJ5183 E. coli by co-transforming PmeI-digested TRAIL-cloned pAdTRACK/CMV and pAdEASY.\nThe recombinant plasmid was digested with PacI, and was used for transfection into […] 293 cells using Superfect (QIAGEN, Valencia, Calif.). Approximately five (5) days after transfection, when comet-like patches of the green cells appeared, the cells were harvested. The viruses were amplified and purified as previously described (El-Deiry et al., Cell 75:817-825 (1993)). The infectivity of the viruses was checked by the observation of green fluorescence using a fluorescence microscope. […]"}, "[7]": {"tested_on": "HFK cells", "test": "active-caspase 3 assay on foreskin keratinocytes", "assay_type": "cell-based, human", "conditions": "increasing concentrations of TRAIL, 4 hours", "from_the_text": "Experiments were done in duplicate (mean value±SD)."}, "[8]": {"tested_on": "EPC2 normal esophageal epithelial cells", "conditions": "EPC2 cells", "experimental": "Normal human primary epithelial cells (EPC2, provided by Dr. Anil Rustgi, University of Pennsylvania) and primary human foreskin keratinocytes (HFK, provided by Dr. John C. Ansel, Emory University), were grown in Keratinocyte-SFM medium (Gibco BRL, Rockville, Md.) containing bovine pituitary extract (40 μg/mL) and epidermal growth factor (1 ng/mL). The primary epithelial cells were used at passage 4 or 5.\nThe N-terminal histidine (His) tagged recombinant human TRAIL (rhTRAIL, Thr-95 to Gly-281) was obtained from R&D Systems (Minneapolis, Minn.). A mouse monoclonal anti-6× His antibody (R&D Systems) was used for cross-linking the rhTRAIL. […] Cells were treated with TRAIL (50 ng/mL final concentration) and 1 μg/mL of anti-6× His (N-terrninal histidine antibody) for 4 hours or for 16 hours. The caspase inhibitor was used at a final concentration of 20 μM, and was added 2 hours prior to the addition of TRAIL. […] In the case of adriamycin, cells were pre-treated with adriamycin (0.5 μM final concentration) for 16 hours before the addition of TRAIL.\n(§6) For detecting apoptosis mediated by TRAIL, an active-caspase 3 assay was performed using Cytofix/Cytoperm kit (Pharmingen, San Diego, Calif.), as previously described (Kim et al., Int. J. Oncol. 18:241-247 (2001)). Briefly, using standard techniques, 5×10^5 cells were seeded into a 6 well plate, after which, the cells were treated with TRAIL cross-linked with anti-6× His antibody. […] After washing, the cells were probed with 0.125 μg/μl of Phycoerythrin (PE)-conjugated goat anti-rabbit secondary antibody (Ab) (CALTAG Laboratories, Burlingame, Calif.) for 20 minutes in the dark. The intensity of PE was analyzed by flow cytometry using a Beckman-Coulter Epics Elite analyzer."}, "[9]": {"tested_on": "EPC2", "test": "mitochondrial transmembrane potential change", "assay_type": "cell-based, human", "conditions": "data not shown"}, "[10]": {"tested_on": "TRAIL-resistant HCE4, TE3, and TE5 cells", "test": "active-caspase 3 assay, adriamycin plus TRAIL", "assay_type": "cell-based, human", "conditions": "HCE4, TE3, TE5; 0.5 μM adriamycin 16 hours, then TRAIL 4 hours; no inhibitor", "experimental": "Cells were treated with TRAIL (50 ng/mL final concentration) and 1 μg/mL of anti-6× His (N-terrninal histidine antibody) for 4 hours or for 16 hours. The caspase inhibitor was used at a final concentration of 20 μM, and was added 2 hours prior to the addition of TRAIL. When the cells were treated with both cycloheximide (CHX) and TRAIL, CHX (10 μg/mL final concentration) was added 6 hours before the addition of TRAIL. In the case of adriamycin, cells were pre-treated with adriamycin (0.5 μM final concentration) for 16 hours before the addition of TRAIL.\nas §6\nAccordingly, adriamycin was tested to determine whether its combination with TRAIL could induce synergistic cell killing in TRAIL-resistant esophageal cancer cells. TRAIL-resistant HCE4, TE3, and TE5 cells were pre-treated with 0.5 μM adriamycin for 16 hours, followed by incubation for 4 hours in the presence of TRAIL. z-LEHD-FMK (20 μM final concentration) was added 2 hours before the addition of TRAIL. An active-caspase 3 assay was used to determine whether apoptosis occurred.\nNext, z-LEHD-FMK was tested in the HCE4, TE3 and TE5 cells to determine the protective effect of z-LEHD-FMK, if any, on the synergistic cell death driven by the combination of adriamycin with TRAIL."}, "[11]": {"tested_on": "HCE4, TE3 and TE5 cells", "test": "mitochondrial transmembrane potential change, DiOC6 flow cytometry", "assay_type": "cell-based, human", "conditions": "0.5 μM adriamycin 16 hours; 100 nM DiOC6", "procedure": "To detect any change of Δψm after treating cells with adriamycin, 3,3′-dihexyloxacarbocyanine iodide (DiOC6 (Pan et al., 1997)) were used. Briefly, 5×10^5 cells/well were seeded into a 6 well plate. After treatment with adriamycin, the cells were harvested, washed and re-suspended in complete media containing 100 nM DiOC6 (Pan et al., 1997) followed by 30 minutes incubation in a 37° C. water bath.\nIn addition to determine the potential mitochondrial membrane (Δψm) change after 16 hours of adriamycin (0.5 μM) pretreatment, the HCE4, TE3 and TE5 cells were incubated in the presence of 100 nM DiOC6 (Pan et al., 1997)."}, "[12]": {"tested_on": "HCE4, TE3 and TE5 cells", "test": "Bax translocation, cell fractionation and western blot", "assay_type": "cell-based, human", "conditions": "cytoplasmic and heavy membrane fractions, western blot", "procedure": "as §1\nTo prepare cytoplasmic fraction and mitochondria-rich heavy membrane fraction, cells were harvested, washed, and then re-suspended in RSB100 (10 mM Tris-HCl, pH 7.4, 2.5 mM MgCl2, 100 mM NaCl) containing 35 μg/mL digitonin (Calbiochem, San Diego, Calif.), and 1× complete protease inhibitor cocktail (Roche Diagnostics). After incubation on ice for 5 minutes, the cells were disrupted by passage through a 25G needle. […] Protein quantity was measured using Bio-Rad protein assay reagent (Bio-Rad, Hercules, Calif.). […]"}}}
{"molecule": "C[C@@H]1C[C@@H]([C@H](O)CC2CC(=O)NC(=O)C2)C(=O)[C@@H](C)C1", "note": "[CHX, cycloheximide]", "values": [{"measurement": "onset of activation of caspase 8, Bid, caspase 9 and cleavage of PARP after TRAIL treatment", "setting": "[1]", "result": "approximately 1 hour"}, {"measurement": "amount of caspase 8 recruited into DISC after CHX pre-treatment", "setting": "[2]", "result": "no increase"}, {"measurement": "amount of caspase 8 in the DISC after CHX pre-treatment", "setting": "[3]", "result": "slight decrease"}, {"measurement": "sensitization to TRAIL by CHX pre-treatment", "setting": "[4]; all cancer cell lines, CHX 10 μg/mL for 6 hours before TRAIL", "result": "became sensitized to TRAIL"}]}
{"molecule": "z-VAD-FMK", "values": [{"measurement": "protection from the killing effect of TRAIL", "setting": "[5]", "result": "protect all cells, including cancer cells, from the killing effect of TRAIL"}, {"measurement": "cleavage of caspase 3 and PARP in Ad-ILZ-TR infected cells with inhibitor", "setting": "[6]", "result": "no cleavage was observed"}]}
{"molecule": "TRAIL: N-terminal histidine tagged recombinant human TRAIL (Thr-95 to Gly-281) from R&D Systems, cross-linked with anti-6x His antibody", "values": [{"measurement": "TRAIL cytotoxicity (active-caspase 3)", "setting": "[7]", "result": "not affected"}, {"measurement": "TRAIL sensitivity (more than 30% of the cells active-caspase 3 positive)", "setting": "[4]; TE2, TE9 and TE12 cell lines, TRAIL cross-linked with anti-6x His antibody, 16 hours", "result": "sensitive to TRAIL"}, {"measurement": "TRAIL cytotoxicity (active-caspase 3)", "setting": "[8]; TRAIL 5, 10, 25 or 50 ng/mL, 4 hours", "result": "showed cytotoxicity in a dose dependent manner"}]}
{"molecule": "COc1cccc2c1C(=O)c1c(O)c3c(c(O)c1C2=O)C[C@@](O)(C(=O)CO)C[C@@H]3O[C@H]1C[C@H](N)[C@H](O)[C@H](C)O1", "note": "[adriamycin, doxorubicin]", "values": [{"measurement": "drop of Δψm after adriamycin", "setting": "[9]", "result": "did not induce drop of Δψm"}, {"measurement": "cell killing by combination of adriamycin and TRAIL", "setting": "[10]", "result": "the effect was synergistic"}, {"measurement": "drop of Δψm after adriamycin treatment", "setting": "[11]", "result": "a drop of Δψm was observed only in the HCE4 cells"}, {"measurement": "Bax translocation from the cytosol to the mitochondria after adriamycin treatment", "setting": "[12]", "result": "only in the HCE4 cells"}, {"measurement": "cell killing by combination of TRAIL and adriamycin", "setting": "[8]; no inhibitor", "result": "synergistically killed"}]}
